Results on 35 compounds are retold here after patent publication US8063055B2, “Substituted pyridone compounds and methods of use” (Amgen Inc., priority 2007, dated 2011).

For one assay, the target named is T1, c-kit kinase enzyme (Homo sapiens, UniProt P10721).
T1 construct: (catalytic domain, N-terminal GST tagged, unphosphorylated)
The assay can be described thus: C-kit Homogeneous Time Resolved Fluorescent (HTRF) kinase assay. It is filed as biochemical. (In TR-FRET formats the signal depends on donor and acceptor labels being close together.)

The test system of assay [1] is SCF-stimulated UT-7 cells. The following applies: Homo sapiens.
Excerpt: SCF and GM-CSF Stimulated UT7 Proliferation/Survival Assay:
The purpose of this assay is to test the general anti-proliferative/cytotoxic effect of small molecule compounds on SCF or GM-CSF-stimulated UT-7 cells. Preventing SCF stimulated proliferation/survival is consistent with an on-mechanism effect whereas inhibition of GM-CSF driven proliferation/survival is indicative of off-target effects. UT-7 is a factor dependent human megakaryoblastic leukemia cell line that can be grown in either IL-3, GM-CSF, EPO or SCF (these cells have been confirmed to carry wild type c-kit receptor). Cells are maintained in growth media (IMDM, 10% HI-FBS, 1×PGS, 1 ng/mL GM-CSF). […] Small molecule compounds are first diluted in 100% DMSO, then diluted 1:4 in RT assay media. […] The treated cells are incubated in a 37° C. humidified incubator with 5% CO2 for 3 days. The amount of ATP is then measured as a surrogate marker for cell viability. […] The amount of SCF or GM-CSF stimulated viable cells in the presence of compound compared with in the presence of vehicle alone (HI control) is calculated using the formula: % control (POC)=(cpd−average LO)/(average HI−average LO)*100. Data (consisting of POC and inhibitor concentration in μM) is fitted to a 4-parameter equation (y=A+((B−A)/(1+((x/C)^D))), where A is the minimum y (POC) value, B is the maximum y (POC), C is the x (cpd concentration) at the point of inflection and D is the slope factor) using a Levenburg-Marquardt non-linear regression algorithm.
The mark [2] stands for this setting: HTRF Fret enzyme assay data, c-kit catalytic domain, biotinylated Her-2 peptide substrate, ATP.
The mark [3] stands for this setting: UT7, 72 h, read-out: UT7 Proliferation cell assay data.
The mark [4] stands for this setting: c-kit catalytic domain, biotinylated Her-2 peptide substrate, ATP, read-out: HTRF Fret enzyme assay data.

SMILES strings stand for the structures. Like-named read-outs stand apart in the source and are kept apart here.

T1 sequence (P10721 589-937 limits assumed): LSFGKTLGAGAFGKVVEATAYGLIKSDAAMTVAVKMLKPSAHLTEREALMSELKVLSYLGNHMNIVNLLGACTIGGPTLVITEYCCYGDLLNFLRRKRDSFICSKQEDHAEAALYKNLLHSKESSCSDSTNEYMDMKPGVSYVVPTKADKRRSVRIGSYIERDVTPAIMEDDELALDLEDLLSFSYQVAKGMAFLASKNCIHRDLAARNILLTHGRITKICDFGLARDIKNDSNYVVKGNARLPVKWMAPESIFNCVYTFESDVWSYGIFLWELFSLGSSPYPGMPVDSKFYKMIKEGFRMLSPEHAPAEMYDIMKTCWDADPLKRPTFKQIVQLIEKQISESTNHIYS

On to `Cc1ccn(-c2ccc(-n3cccc3)cc2)c(=O)c1-c1ccc2nc(N)ncc2c1` [Example 5, 1-(4-(1H-pyrrol-1-yl)phenyl)-3-(2-aminoquinazolin-6-yl)-4-methylpyridin-2(1H)-one], for which the IC50 on c-kit kinase enzyme (setting [2]) was 2.25 nM; in assay [1] (setting [3]) it was 4.83 nM; in assay [1] (UT7, read-out: average IC50 value in the SCF stimulated UT7 proliferation and survival assay), at most 1000 nM.
Take `Cc1ccc(-n2ccc(C)c(-c3ccc4nc(N)ncc4c3)c2=O)cc1F` [Example 6, 3-(2-aminoquinazolin-6-yl)-1-(3-fluoro-4-methylphenyl)-4-methylpyridin-2(1H)-one]: the figures for the IC50 (on c-kit kinase enzyme (setting [4]); in assay [1] (setting [3])) were 40.1 nM and 12.1 nM, respectively.
For `Cc1ccn(-c2ccc(-c3ncco3)cc2)c(=O)c1-c1ccc2nc(N)ncc2c1` [Example 7, 3-(2-aminoquinazolin-6-yl)-4-methyl-1-(4-(oxazol-2-yl)phenyl)pyridin-2(1H)-one], the IC50 on c-kit kinase enzyme (setting [2]) came out at 21.6 nM; in assay [1] (setting [3]), 15.5 nM.
Turning to `Cc1cc(C)cc(-n2ccc(C)c(-c3ccc4nc(N)ncc4c3)c2=O)c1` [Example 8, 3-(2-aminoquinazolin-6-yl)-1-(3,5-dimethylphenyl)-4-methylpyridin-2(1H)-one], the IC50 came to 16.1 nM against c-kit kinase enzyme (setting [2]) and 50.1 nM in assay [1] (setting [3]).
In the same order, the values of `Cc1ccn(-c2cccc(C#N)c2)c(=O)c1-c1ccc2nc(N)ncc2c1` [Example 9, 3-(3-(2-aminoquinazolin-6-yl)-4-methyl-2-oxopyridin-1(2H)-yl)benzonitrile] are 88.8 nM and 107 nM.
Turning to `Cc1ccn(-c2ccc3[nH]c(C(F)(F)F)nc3c2)c(=O)c1-c1ccc2nc(N)ncc2c1` [Example 10, 3-(2-aminoquinazolin-6-yl)-4-methyl-1-(2-(trifluoromethyl)-1H-benzo[d]imidazol-5-yl)pyridin-2(1H)-one], the IC50 against c-kit kinase enzyme (setting [2]) is 34.8 nM; in assay [1] (setting [3]) it was 189 nM.
Take `COc1cc(-n2ccc(C)c(-c3ccc4nc(N)ncc4c3)c2=O)cc(C(F)(F)F)c1` [Example 11, 3-(2-aminoquinazolin-6-yl)-1-(3-methoxy-5-(trifluoromethyl)phenyl)-4-methylpyridin-2(1H)-one]: the figures for the IC50 (on c-kit kinase enzyme (setting [2]); in assay [1] (setting [3])) were 11.1 nM and 58.8 nM, respectively.
In the case of `Cc1ccn(-c2ccc(C(C)(C)C)cc2)c(=O)c1-c1ccc2nc(N)ncc2c1` [Example 12, 3-(2-amino-6-quinazolinyl)-1-(4-(1,1-dimethylethyl)phenyl)-4-methyl-2(1H)-pyridinone], the IC50 was 2.06 nM on c-kit kinase enzyme (setting [2]) and 16.5 nM in assay [1] (setting [3]).
In the same order, the values of `Cc1ccc(-n2ccc(C)c(-c3ccc4nc(N)ncc4c3)c2=O)cc1C` [Example 13, 3-(2-amino-6-quinazolinyl)-1-(3,4-dimethylphenyl)-4-methyl-2(1H)-pyridinone] are 3.67 nM and 5.4 nM.
For `Cc1ccn(-c2cccc(OC(F)(F)F)c2)c(=O)c1-c1ccc2nc(N)ncc2c1` [Example 14, 3-(2-amino-6-quinazolinyl)-4-methyl-1-(3-((trifluoromethyl)oxy)phenyl)-2(1H)-pyridinone], in that order: 4.04 nM and 16.2 nM.
For `Cc1ccn(-c2ccc3c(c2)NCC3(C)C)c(=O)c1-c1ccc2nc(N)ncc2c1` [Example 15, 3-(2-amino-6-quinazolinyl)-1-(3,3-dimethyl-2,3-dihydro-1H-indol-6-yl)-4-methyl-2(1H)-pyridinone], in that order: 4.7 nM and 19.4 nM.
Take `Cc1ccn(-c2ccc3ncccc3c2)c(=O)c1-c1ccc2nc(N)ncc2c1` [Example 16, 3-(2-amino-6-quinazolinyl)-4-methyl-1-(6-quinolinyl)-2(1H)-pyridinone]: the IC50 stood at 5.29 nM on c-kit kinase enzyme (setting [2]) and 56.8 nM in assay [1] (setting [3]).
Consider `Cc1ccn(-c2ccc3c(c2)CCO3)c(=O)c1-c1ccc2nc(N)ncc2c1` [Example 17, 3-(2-amino-6-quinazolinyl)-1-(2,3-dihydro-1-benzofuran-5-yl)-4-methyl-2(1H)-pyridinone], for which the results for the IC50 (at c-kit kinase enzyme (setting [2]); in assay [1] (setting [3])) were 7.58 nM and 15.1 nM, respectively.
With `Cc1ccn(-c2ccc3[nH]ccc3c2)c(=O)c1-c1ccc2nc(N)ncc2c1` [Example 18, 3-(2-amino-6-quinazolinyl)-4-methyl-1-(1H-indol-5-yl)-2(1H)-pyridinone], the IC50 against c-kit kinase enzyme (setting [2]) was 8.65 nM; in assay [1] (setting [3]), 28.8 nM.
For `CC(=O)N1CC(C)(C)c2ccc(-n3ccc(C)c(-c4ccc5nc(N)ncc5c4)c3=O)cc21` [Example 19, 1-(1-acetyl-3,3-dimethyl-2,3-dihydro-1H-indol-6-yl)-3-(2-amino-6-quinazolinyl)-4-methyl-2(1H)-pyridinone], in that order: 9.75 nM and 226 nM.
With `Cc1ccn(-c2cccc(C(F)(F)F)c2)c(=O)c1-c1ccc2nc(N)ncc2c1` [Example 20, 3-(2-amino-6-quinazolinyl)-4-methyl-1-(3-(trifluoromethyl)phenyl)-2(1H)-pyridinone], the IC50 in assay [1] (setting [3]) stood at 27.9 nM.
As to `COc1cccc(-n2ccc(C)c(-c3ccc4nc(N)ncc4c3)c2=O)c1` [Example 22, 3-(2-amino-6-quinazolinyl)-4-methyl-1-(3-(methyloxy)phenyl)-2(1H)-pyridinone], the IC50 on c-kit kinase enzyme (setting [4]) came out at 65.3 nM; in assay [1] (setting [3]), 27.7 nM.
As to `Cc1ccn(Cc2ccccc2)c(=O)c1-c1ccc2nc(N)ncc2c1` [Example 24, 3-(2-aminoquinazolin-6-yl)-1-benzyl-4-methylpyridin-2(1H)-one], the IC50 at c-kit kinase enzyme (setting [2]) came out at 6 nM; in assay [1] (setting [3]) it was 13 nM.
Regarding `Cc1ccn(CCC(C)C)c(=O)c1-c1ccc2nc(N)ncc2c1` [Example 25, 3-(2-aminoquinazolin-6-yl)-1-isopentyl-4-methylpyridin-2(1H)-one], the IC50 worked out at 18 nM at c-kit kinase enzyme (setting [2]) and 84 nM in assay [1] (setting [3]).
Take `Cc1ccn(-c2ccc3c(ccn3-c3ccc4[nH]ccc4c3)c2)c(=O)c1-c1ccc2nc(N)ncc2c1` [Example 26, 3-(2-amino-6-quinazolinyl)-1-(1′H-1,5′-biindol-5-yl)-4-methyl-2(1H)-pyridinone]: the IC50 was 2 nM on c-kit kinase enzyme (setting [2]) and 11 nM in assay [1] (setting [3]).
In the same order, the values of `Cc1ccn(-c2ccc(C(C)C)cc2)c(=O)c1-c1ccc2nc(N)ncc2c1` [Example 27, 3-(2-aminoquinazolin-6-yl)-1-(4-isopropylphenyl)-4-methylpyridin-2(1H)-one] are 2 nM and 5 nM.
On to `CC(=O)c1ccc(-n2ccc(C)c(-c3ccc4nc(N)ncc4c3)c2=O)cc1` [Example 28, 1-(4-acetylphenyl)-3-(2-aminoquinazolin-6-yl)-4-methylpyridin-2(1H)-one], for which, on c-kit kinase enzyme (setting [4]), the IC50 stood at 20 nM.
On the same count and under the same terms, the figure for `COc1ccc(-n2ccc(C)c(-c3ccc4nc(N)ncc4c3)c2=O)cc1` [Example 31, 3-(2-aminoquinazolin-6-yl)-1-(4-methoxyphenyl)-4-methylpyridin-2(1H)-one] is 17 nM.
Turning to `Cc1ccn(-c2ccc(N3CCN(C(=O)OC(C)(C)C)CC3)cc2)c(=O)c1-c1ccc2nc(N)ncc2c1` [Example 36, tert-butyl 4-(4-(3-(2-aminoquinazolin-6-yl)-4-methyl-2-oxopyridin-1(2H)-yl)phenyl)piperazine-1-carboxylate], the IC50 against c-kit kinase enzyme (setting [2]) was found to be 1370 nM.
Same read-out and setting: the figure for `CCOC(=O)CNc1ccc(-n2ccc(C)c(-c3ccc4nc(N)ncc4c3)c2=O)cc1` [Example 37, ethyl 2-(4-(3-(2-aminoquinazolin-6-yl)-4-methyl-2-oxopyridin-1(2H)-yl)phenylamino)acetate] is 181 nM.
For the compound `Cc1ccn(-c2ccc(Cl)c(F)c2)c(=O)c1-c1ccc2nc(N)ncc2c1` [Example 44, 3-(2-aminoquinazolin-6-yl)-1-(4-chloro-3-fluorophenyl)-4-methylpyridin-2(1H)-one], the IC50 on c-kit kinase enzyme (setting [4]) amounted to 59.7 nM.
The compound `Cc1ccn(CC2CCCCC2)c(=O)c1-c1ccc2nc(N)ncc2c1` [Example 47, 3-(2-aminoquinazolin-6-yl)-1-(cyclohexylmethyl)-4-methylpyridin-2(1H)-one] came in with an IC50 against c-kit kinase enzyme (setting [2]) of 132 nM.
On the same count and under the same terms, the figure for `Cc1ccn(CC2CCC2)c(=O)c1-c1ccc2nc(N)ncc2c1` [Example 48, 3-(2-aminoquinazolin-6-yl)-1-(cyclobutylmethyl)-4-methylpyridin-2(1H)-one] is 1410 nM; for `Cc1ccn(CC(C)C)c(=O)c1-c1ccc2nc(N)ncc2c1` [Example 49, 3-(2-aminoquinazolin-6-yl)-1-isobutyl-4-methylpyridin-2(1H)-one] it is 2250 nM.
Take `CCCn1ccc(C)c(-c2ccc3nc(N)ncc3c2)c1=O` [Example 50, 3-(2-aminoquinazolin-6-yl)-4-methyl-1-propylpyridin-2(1H)-one]: the IC50 is 315 nM on c-kit kinase enzyme (setting [2]) and at most 1000 nM on c-kit kinase enzyme (average IC50 value, inhibition of the c-kit kinase enzyme in a human HTRF assay, 1.0 uM or less).
In turn, `COC(=O)Cn1ccc(C)c(-c2ccc3nc(N)ncc3c2)c1=O` [Example 51, methyl 2-(3-(2-aminoquinazolin-6-yl)-4-methyl-2-oxopyridin-1(2H)-yl)acetate] showed an IC50 on c-kit kinase enzyme (setting [2]) of 1190 nM.
On c-kit kinase enzyme (setting [2]), `CCCCn1ccc(C)c(-c2ccc3nc(N)ncc3c2)c1=O` [Example 53, 3-(2-aminoquinazolin-6-yl)-1-butyl-4-methylpyridin-2(1H)-one] gave an IC50 of 118 nM.
Same read-out and setting: to `Cc1ccn(CCN(C)C)c(=O)c1-c1ccc2nc(N)ncc2c1` [Example 55, 3-(2-aminoquinazolin-6-yl)-1-(2-(dimethylamino)ethyl)-4-methylpyridin-2(1H)-one] belongs 1580 nM; to `COCCn1ccc(C)c(-c2ccc3nc(N)ncc3c2)c1=O` [Example 56, 3-(2-aminoquinazolin-6-yl)-1-(2-methoxyethyl)-4-methylpyridin-2(1H)-one], 2230 nM.
On the same count and under the same terms, to `Cc1ccn(CCn2cccn2)c(=O)c1-c1ccc2nc(N)ncc2c1` [Example 60, 1-(2-(1H-pyrazol-1-yl)ethyl)-3-(2-aminoquinazolin-6-yl)-4-methylpyridin-2(1H)-one] belongs 176 nM.
